The source of these data is PMC10945480 (Journal of Medicinal Chemistry, 2024).

Series [1] relates to multiple myeloma RPMI8226. The series is described as follows: Cell viability, resazurin assay, RPMI8226. The note with it: for S.I. (EAhy926/RPMI8226), selectivity index: 24 h IC50 ratio; for IC50: Homo sapiens, RPMI-8226, 24 h, read-out: RPMI8226 IC50. In general terms: Alamar Blue is a resazurin reagent that responds to reducing activity.
Procedure: (§3) Cells were maintained in a humidified incubator at 37 °C in 5% CO2, and cell viability was determined with the resazurin assay (Cayman Chemical, USA) after the incubation with compounds for indicated concentrations and times or DMSO as control.[72]
Series [2] has as its system breast cancer MDA-MB-231. The series is described as follows: Cell viability, resazurin assay, MDA-MB-231. The note with it: Homo sapiens, MDA-MB-231, 24 h, read-out: MDA-MB-231 IC50.
Procedure: as §3
Series [3] relates to human vascular endothelial EA.hy926 cells. The series is described as follows: Cell viability, resazurin assay, EA.hy926. Particulars: EA.hy 926, 24 h, read-out: EAhy926 IC50.
Procedure: as §3
For series [4], the system named is washed human platelets. The series is described as follows: U46619-induced platelet aggregation. The series is classed as cell-based. The note with it: Platelet; washed human platelets, U46619 (1 μM). The method, then:
(§1) The antiplatelet effects of the JUG derivatives were evaluated by measuring human platelet aggregation, which can be regulated by cell surface PDI. Platelet aggregation was induced with platelet activators U46619 (a mimetic of thromboxane A2) and collagen (binding to GPVI).
(§2) Washed human platelets were prepared from acid citrate dextrose-anticoagulated blood of healthy human volunteers as described previously.[73] The study was approved by the Institutional Review Board of Kaohsiung Medical University, and informed consent was obtained from every volunteer. Platelet aggregation was measured by using a turbidimetric aggregometer (Chrono-Log Co., USA) under stirring conditions (1200 rpm) at 37 °C. The extent of platelet aggregation was measured as the maximal increase of light transmission after the addition of the stimulators U46619 and collagen.[73] In the TCIPA assay, platelet aggregation was induced by A549 (1 × 10^4 cells/mL), MDA-MB-231 (1 × 10^2 cells/mL), or RPMI8226 (1 × 10^5 cells/mL) cancer cells in the presence of 0.375% plasma.[74]

The target of series [5] is platelet surface PDI (Homo sapiens, UniProt P07237). The series is described as follows: Cell surface PDI reductase activity on intact human platelets (Di-E-GSSG assay). Particulars: read-out: Surface PDI IC50; intact human platelets, Di-E-GSSG, 5 μM DTT.
Procedure: (§4) In this assay, a nonfluorescent substrate, dieosin glutathione disulfide (Di-E-GSSG), was reduced into a fluorescent product eosin-glutathione (E-GSH) by platelet surface PDI in the presence of 5 μM dithiothreitol (DTT).
Series [6] relates to glioma U87. The series is described as follows: Cell viability, resazurin assay, U87. Particulars: Homo sapiens, 24 h, read-out: U87 IC50.
Procedure: as §3
In series [7] the target is purified human recombinant PDI (rPDI) (Homo sapiens, UniProt P07237). Briefly: Recombinant PDI reductase activity (Di-E-GSSG assay). Particulars: read-out: rPDI IC50; human recombinant PDI, Di-E-GSSG, 5 μM DTT.
Procedure: as §4
A short description of series [8]: Parallel artificial membrane permeability assay (PAMPA). Particulars: 50 μM, 3 h. The method, then:
1. Parallel artificial membrane permeability assay (PAMPA). […]
evolution instruments from pION Inc. In the PAMPA assay, a set of sandwich plates consists of a 96-well microtiter donor plate at the bottom and a 96-well filter acceptor plate on the top from […]
The stock solutions of samples were prepared at 10 mM concentrations in DMSO and stored at 0 ℃ before use. Before being added to a 96-well filter plate, the stock solution was diluted first with buffer to achieve a final sample concentration of 50 μM and to reduce the DMSO concentration below 1% (v/v). Each well of the 96-well donor plate was filled with a 200 μL diluted sample solution (50 μM), and the 96-well filter acceptor plate was then wetted with a 5 μL 2% w/v dioleyoylphosphatidylcholine (DOPC) in n-dodecane and subsequently placed on the donor wells.
Immediately, the acceptor wells were filled with 200 μL of buffer solution and the PAMPA plate sandwich was sealed and incubated at 25 ℃ for 3 h. After reaching the permeation time, the PAMPA plate sandwich was separated and transferred to 96-well UV plates respectively. The amounts of drugs in both the donor and acceptor compartments were measured by comparing the experimental spectra with the UV spectrum (220∼400 nm) obtained from reference standards.
(PAMPA measures passive passage across an artificial lipid membrane.)

In series [9] the test system is lung cancer A549. The series is described as follows: Cell viability, resazurin assay, A549. The note with it: Homo sapiens, A549, 24 h, read-out: A549 IC50.
Procedure: as §3
Series [10] concerns washed human platelets. The series is described as follows: Collagen-induced platelet aggregation. The class given is cell-based. The note with it: Platelet; washed human platelets, collagen (5 μg/mL). As to the method: as §1, §2
Series [11] deals with washed human platelets coincubated with A549, MDA-MB-231, or RPMI8226 cancer cells. Briefly: Tumor cell-induced platelet aggregation (TCIPA). The series is classed as cell-based. The note with it: anti-TF antibody 20 μg/mL, hirudin 0.01 μM, aspirin 100 μM, ticagrelor 1 μM.
The mark [12] stands for this setting: 25 ℃, verapamil = 100%, ranitidine = 0%.

platelet surface PDI, sequence (P07237 18-508): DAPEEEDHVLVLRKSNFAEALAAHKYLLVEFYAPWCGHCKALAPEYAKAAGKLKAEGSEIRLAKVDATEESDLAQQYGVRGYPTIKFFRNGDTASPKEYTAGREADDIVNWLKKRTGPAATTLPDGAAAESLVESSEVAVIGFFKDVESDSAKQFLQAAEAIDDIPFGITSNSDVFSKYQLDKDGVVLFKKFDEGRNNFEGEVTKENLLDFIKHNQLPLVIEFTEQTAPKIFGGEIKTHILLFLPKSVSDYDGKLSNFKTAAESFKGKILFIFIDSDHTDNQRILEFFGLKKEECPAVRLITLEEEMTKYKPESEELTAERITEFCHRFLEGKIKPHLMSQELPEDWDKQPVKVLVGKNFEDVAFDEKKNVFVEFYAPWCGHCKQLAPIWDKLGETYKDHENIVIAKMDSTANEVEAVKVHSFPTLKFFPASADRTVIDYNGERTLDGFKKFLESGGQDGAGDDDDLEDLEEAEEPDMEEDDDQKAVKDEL
purified human recombinant PDI (rPDI), sequence (P07237 18-508): as above

In general, IC50 refers to the concentration at which inhibition is half-maximal. As for `COc1cccc(SC2=CC(=O)c3cccc(O)c3C2=O)c1` [Compound 9, 2-((3-Methoxyphenyl)thio)-8-hydroxynaphthalene-1,4-dione], the “S.I. (EAhy926/RPMI8226), selectivity index” value in series [1] worked out at 8.9. The IC50 in series [1] worked out at 0.77 ± 0.05 µM; in [2] it was 5.57 ± 0.7 µM; in [3], 6.89 ± 0.12 µM; in series [4] it was 1600 ± 160 nM; in series [5], 840 ± 60 nM; in series [6], 8.06 ± 0.48 µM. In addition, the figures for the 50% inhibitory concentration (IC50) in series [7], in series [9] and in series [10] were 710 ± 40 nM, 13.9 ± 0.53 µM and 380 ± 130 nM, respectively. The “Permeability (%)” value in series [8] (setting [12]) was determined as 38.9%.
Regarding `COc1ccc(SC2=CC(=O)c3cccc(O)c3C2=O)cc1OC` [Compound 11, 2-((3,4-Dimethoxyphenyl)thio)-8-hydroxynaphthalene-1,4-dione], the “S.I. (EAhy926/RPMI8226), selectivity index” value in [1] was more than 8.8. Besides, the 50% inhibitory concentration (IC50) in series [1] was 2.26 ± 0.07 µM; in [2], 38.9 ± 4.89 µM; in series [3] it was more than 20 µM; in series [4], 2430 ± 300 nM; in series [5], 1280 ± 290 nM; in [6], more than 20 µM. Further, the results for the IC50 in series [7], in [9] and in [10] were 14000 ± 1670 nM, 12.4 ± 1.56 µM and 1580 ± 880 nM, respectively. Besides, the “Permeability (%)” value in series [8] (setting [12]) amounted to 2.7%.
With `Cc1ccc(SC2=CC(=O)c3cccc(O)c3C2=O)cc1` [Compound 12, 2-(p-Tolylthio)-8-hydroxynaphthalene-1,4-dione], in series [1], the “S.I. (EAhy926/RPMI8226), selectivity index” value was more than 5.2. Also, the IC50 in series [1] is 3.83 ± 0.28 µM; in series [2] it was 25.2 ± 2.58 µM; in series [3] it was more than 20 µM; in [4], 1820 ± 170 nM; in series [5], 1840 ± 50 nM; in series [6], more than 20 µM. For the same compound, the IC50 in [7] is 3450 ± 180 nM; in series [9] it was more than 100 µM; in [10] it was 760 ± 20 nM. In addition, the “Permeability (%)” value in series [8] came to 0.1%.
With `CC(C)(C)c1ccc(SC2=CC(=O)c3cccc(O)c3C2=O)cc1` [Compound 13, 2-((4-(tert-Butyl)phenyl)thio)-8-hydroxynaphthalene-1,4-dione], in series [1], the “S.I. (EAhy926/RPMI8226), selectivity index” value is recorded as more than 5.7. Further, the 50% inhibitory concentration (IC50) in [1] was 3.5 ± 0.26 µM; in series [2] it was 15.1 ± 1.48 µM; in series [3] it was more than 20 µM; in [4], 1850 ± 170 nM; in [5], 1500 ± 50 nM; in [6], more than 20 µM. Also, the 50% inhibitory concentration (IC50) is 1290 ± 300 nM in series [7], more than 100 µM in [9] and 640 ± 50 nM in series [10]. Further, in series [8] (setting [12]), the “Permeability (%)” value is recorded as 8.5%.
For `O=C1C=C(Sc2ccc(F)cc2)C(=O)c2c(O)cccc21` [Compound 15, 2-((4-Fluorophenyl)thio)-8-hydroxynaphthalene-1,4-dione], the “S.I. (EAhy926/RPMI8226), selectivity index” value in series [1] was more than 7.7. Moreover, the IC50 in series [1] is 2.59 ± 0.25 µM; in [2], 10.6 ± 0.85 µM; in [3], more than 20 µM; in [4], 1880 ± 180 nM; in series [5], 1670 ± 150 nM; in series [6], 17.3 ± 0.68 µM. The IC50 in series [7] was 1160 ± 470 nM; in [9], 38.3 ± 2.65 µM; in series [10], 830 ± 110 nM. For the same compound, in series [8] (setting [12]), the “Permeability (%)” value stood at 85.4%.
On to `O=C1C=C(Br)C(=O)c2c(O)cccc21` [Compound 17, 2-Bromo-8-hydroxynaphthalene-1,4-dione], for which the “S.I. (EAhy926/RPMI8226), selectivity index” value in series [1] is recorded as more than 4.8. In addition, the IC50 in [1] was 4.21 ± 0.43 µM; in series [2], 14.1 ± 0.79 µM; in series [3], more than 20 µM; in [4], 1760 ± 80 nM; in [5], 1130 ± 250 nM; in [6] it was more than 20 µM. The IC50 came out at 1990 ± 630 nM in series [7], 15.3 ± 0.74 µM in series [9] and 520 ± 210 nM in series [10]. For the same compound, the “Permeability (%)” value in series [8] (setting [12]) was 16.9%.
`CC(C)(C)c1ccc(CSC2=CC(=O)c3cccc(O)c3C2=O)cc1` [Compound 20, 2-((4-(tert-Butyl)benzyl)thio)-8-hydroxynaphthalene-1,4-dione]: the “S.I. (EAhy926/RPMI8226), selectivity index” value in series [1] is recorded as more than 4.6. The half-maximal inhibitory concentration (IC50) in [1] was 4.33 ± 0.34 µM; in series [2], more than 20 µM; in [3] it was more than 20 µM; in series [4], 6320 ± 300 nM; in series [5], 1200 ± 310 nM; in [6] it was more than 20 µM. The IC50 in series [7] is 2010 ± 550 nM; in series [9], more than 50 µM; in [10] it was 2920 ± 770 nM. Further, the “Permeability (%)” value in series [8] (setting [12]) is given as 17.1%.
In the case of `COc1ccc(OC2=CC(=O)c3cccc(O)c3C2=O)cc1` [Compound 21, 2-(4-Methoxyphenoxy)-8-hydroxynaphthalene-1,4-dione], the “S.I. (EAhy926/RPMI8226), selectivity index” value in series [1] is 10.6. Also, the IC50 in series [1] amounted to 0.57 ± 0.02 µM; in series [2], 6.62 ± 1.79 µM; in series [3], 6.03 ± 0.07 µM; in series [4] it was 1350 ± 130 nM; in series [5], 1120 ± 310 nM; in [6], 12.6 ± 0.68 µM. Further, the IC50 is 1370 ± 260 nM in [7], 12 ± 1.47 µM in series [9] and 350 ± 30 nM in series [10]. For the same compound, the “Permeability (%)” value in series [8] (setting [12]) is on record as 61.4%.
On to `O=C1C=C(c2ccc(O)cc2O)C(=O)c2c(O)cccc21` [Compound 29, 2-(2,4-Dihydroxyphenyl)-8-hydroxynaphthalene-1,4-dione], for which, in series [1], the “S.I. (EAhy926/RPMI8226), selectivity index” value is on record as 1.4. In addition, the IC50 in [1] was found to be 3.88 ± 0.23 µM; in [2], 13.1 ± 1.59 µM; in series [3], 5.49 ± 0.09 µM; in series [4], 4610 ± 1100 nM; in series [5] it was 530 ± 110 nM; in series [6], 5.13 ± 0.29 µM. The values for the IC50 in series [7], in series [9] and in series [10] were 770 ± 200 nM, 7.59 ± 0.16 µM and 7040 ± 1710 nM, respectively. For the same compound, the “Permeability (%)” value in series [8] (setting [12]) was determined as 42.95%.
Regarding hirudin, in series [11], the “effect of comparators on TCIPA” value was “able to prevent the TCIPA”.
